# Values quoted from earlier work, collected in patent US4540572A, “Gel-like ointment containing indometacin” (Mepha AG, priority 1983, dated 1985).
# Test system: human skin
# Conditions: from the conventional ointment bases
structure (smiles),measurement,value
COc1ccc2c(c1)c(CC(=O)O)c(C)n2C(=O)c1ccc(Cl)cc1 [indometacin],absorption through the human skin,lack of its absorption
